Molecular target: human F508del-CFTR (Homo sapiens, UniProt P13569, DEL508-508)
Test: F508del-CFTR cell surface expression (corrector activity), DiscoveRx ß-galactosidase complementation chemiluminescence assay in recombinant U2OS cell line;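 also: U2OS cells co-expressing ProLink-tagged F508del-CFTR and a membrane-anchored enzyme acceptor, where more surface CFTR restores β-galactosidase activity measured by chemiluminescence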
Details: U2OS cell line, 16h compound incubation; for EC50: EC50, F508del-CFTR cell surface expression, geomean values; for Emax: U2OS, in relation to the Emax of the corrector lumacaftor (=100%), arithmetic mean values

Sequence of human F508del-CFTR (P13569 with tags, fused parts or gaps DEL508-508): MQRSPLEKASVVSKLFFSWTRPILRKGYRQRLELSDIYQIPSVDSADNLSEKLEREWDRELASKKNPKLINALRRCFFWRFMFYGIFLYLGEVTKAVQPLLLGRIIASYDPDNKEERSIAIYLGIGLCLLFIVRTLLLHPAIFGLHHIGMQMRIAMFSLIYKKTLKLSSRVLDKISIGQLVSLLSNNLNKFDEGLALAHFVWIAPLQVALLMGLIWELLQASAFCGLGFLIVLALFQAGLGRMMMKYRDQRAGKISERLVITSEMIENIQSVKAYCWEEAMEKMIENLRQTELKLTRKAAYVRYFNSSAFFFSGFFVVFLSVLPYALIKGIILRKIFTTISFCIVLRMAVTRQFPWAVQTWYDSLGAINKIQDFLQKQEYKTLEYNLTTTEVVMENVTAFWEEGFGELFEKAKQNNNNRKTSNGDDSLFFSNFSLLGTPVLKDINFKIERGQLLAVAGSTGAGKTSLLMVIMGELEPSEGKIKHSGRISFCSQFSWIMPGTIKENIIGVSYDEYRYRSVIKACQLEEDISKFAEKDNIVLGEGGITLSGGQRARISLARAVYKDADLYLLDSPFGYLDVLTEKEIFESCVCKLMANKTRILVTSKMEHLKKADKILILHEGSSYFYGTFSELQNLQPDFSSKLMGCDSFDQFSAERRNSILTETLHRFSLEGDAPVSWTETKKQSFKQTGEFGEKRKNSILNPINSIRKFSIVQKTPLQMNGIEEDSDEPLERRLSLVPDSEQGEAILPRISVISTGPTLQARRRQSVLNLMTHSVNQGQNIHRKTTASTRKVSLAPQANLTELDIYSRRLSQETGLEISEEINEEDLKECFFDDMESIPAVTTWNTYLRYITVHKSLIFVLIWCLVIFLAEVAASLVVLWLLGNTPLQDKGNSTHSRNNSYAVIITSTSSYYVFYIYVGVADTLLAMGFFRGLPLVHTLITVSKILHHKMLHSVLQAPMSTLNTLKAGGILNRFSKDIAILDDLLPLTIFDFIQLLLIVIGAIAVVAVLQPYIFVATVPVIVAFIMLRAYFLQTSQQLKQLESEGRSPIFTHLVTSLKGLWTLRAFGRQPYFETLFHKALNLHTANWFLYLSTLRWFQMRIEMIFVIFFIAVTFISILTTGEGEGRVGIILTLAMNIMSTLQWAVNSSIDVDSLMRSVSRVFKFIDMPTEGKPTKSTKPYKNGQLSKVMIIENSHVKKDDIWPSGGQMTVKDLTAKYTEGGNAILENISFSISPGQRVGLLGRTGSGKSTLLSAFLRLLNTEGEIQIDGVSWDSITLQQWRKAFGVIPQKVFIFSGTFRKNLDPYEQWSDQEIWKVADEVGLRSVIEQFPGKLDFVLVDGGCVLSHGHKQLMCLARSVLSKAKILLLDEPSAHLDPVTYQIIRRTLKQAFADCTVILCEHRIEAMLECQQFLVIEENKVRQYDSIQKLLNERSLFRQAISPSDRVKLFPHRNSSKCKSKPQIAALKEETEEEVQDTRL

Structure (SMILES) | EC50 [nM] | Emax [%]
CC(C)C[C@H]1C(=O)N2CCOC[C@@H]2C(=O)N[C@H](Cc2ccccc2)COc2cnc3ccccc3c2C(=O)N[C@H](C(=O)NCCc2cc(C(F)(F)F)no2)CC(=O)N1C [Example 221, (9S,13S,19aR,22R)-22-benzyl-13-isobutyl-12-methyl-7,11,14,20-tetraoxo-N-(2-(3-(trifluoromethyl)isoxazol-5-yl)ethyl)-7,8,9,10,11,12,13,14,16,17,19,19a,20,21,22,23-hexadecahydro-[1,4]oxazino[3′,4′:6,7][1]oxa[4,7,10,14]tetraazacycloheptadecino[17,16-c]quinoline-9-carboxamide] | 833 | 229
COc1cccc(CCNC(=O)[C@@H]2CC(=O)N(C)[C@@H](CC(C)C)C(=O)N3CCOC[C@@H]3C(=O)N[C@H](Cc3ccccc3)COc3ccc4ccccc4c3C(=O)N2)c1 [Example 222, (4aR,7R,18S,22S)-7-Benzyl-22-isobutyl-N-(3-methoxyphenethyl)-21-methyl-5,16,20,23-tetraoxo-1,2,4,4a,5,6,7,8,16,17,18,19,20,21,22,23-hexadecahydronaphtho[1,2-p][1,4]oxazino[3,4-f][1]oxa[4,7,10,14]tetraazacycloheptadecine-18-carboxamide] | 216 | 249
CC(C)C[C@H]1C(=O)N(C)CC(=O)N[C@H](Cc2ccccc2)COc2cc3c(cc2C(=O)N[C@H](C(=O)NCCc2ccc4c(c2)OCO4)CC(=O)N1C)OCO3 [Example 223, (7R,13S,17S)-N-(2-(benzo[d][1,3]dioxol-5-yl)ethyl)-7-benzyl-13-isobutyl-11,14-dimethyl-9,12,15,19-tetraoxo-6,7,8,9,10,11,12,13,14,15,16,17,18,19-tetradecahydro-[1,3]dioxolo[4′,5′:4,5]benzo[1,2-p][1]oxa[4,7,10,14]tetraazacycloheptadecine-17-carboxamide] | 388 | 141
COc1cccc(CCNC(=O)[C@@H]2CC(=O)N(C)[C@@H](CC(C)C)C(=O)N(C)CC(=O)N[C@H](Cc3ccccc3)COc3cc4c(cc3C(=O)N2)OCO4)c1 [Example 224, (7R,13S,17S)-7-benzyl-13-isobutyl-N-(3-methoxyphenethyl)-11,14-dimethyl-9,12,15,19-tetraoxo-6,7,8,9,10,11,12,13,14,15,16,17,18,19-tetradecahydro-[1,3]dioxolo[4′,5′:4,5]benzo[1,2-p][1]oxa[4,7,10,14]tetraazacycloheptadecine-17-carboxamide] | 340 | 144
CCOc1cccc(CCNC(=O)[C@@H]2CC(=O)N(C)[C@@H](CC(C)C)C(=O)N(C)CC(=O)N[C@H](Cc3ccccc3)COc3cc4c(cc3C(=O)N2)OCO4)c1 [Example 225, (7R,13S,17S)-7-benzyl-N-(3-ethoxyphenethyl)-13-isobutyl-11,14-dimethyl-9,12,15,19-tetraoxo-6,7,8,9,10,11,12,13,14,15,16,17,18,19-tetradecahydro-[1,3]dioxolo[4′,5′:4,5]benzo[1,2-p][1]oxa[4,7,10,14]tetraazacycloheptadecine-17-carboxamide] | 191 | 110
CC(C)C[C@H]1C(=O)N(C)CC(=O)N[C@H](Cc2ccccc2)COc2cc3c(cc2C(=O)N[C@H](C(=O)NCCc2ccc4c(c2)OCCO4)CC(=O)N1C)OCO3 [Example 226, (7R,13S,17S)-7-benzyl-N-(2-(2,3-dihydrobenzo[b][1,4]dioxin-6-yl)ethyl)-13-isobutyl-11,14-dimethyl-9,12,15,19-tetraoxo-6,7,8,9,10,11,12,13,14,15,16,17,18,19-tetradecahydro-[1,3]dioxolo[4′,5′:4,5]benzo[1,2-p][1]oxa[4,7,10,14]tetraazacycloheptadecine-17-carboxamide] | 520 | 213
CCc1ccc(CCNC(=O)[C@@H]2CC(=O)N(C)[C@@H](CC(C)C)C(=O)N(C)CC(=O)N[C@H](Cc3ccccc3)COc3cc4c(cc3C(=O)N2)OCO4)cc1 [Example 227, (7R,13S,17S)-7-benzyl-N-(4-ethylphenethyl)-13-isobutyl-11,14-dimethyl-9,12,15,19-tetraoxo-6,7,8,9,10,11,12,13,14,15,16,17,18,19-tetradecahydro-[1,3]dioxolo[4′,5′:4,5]benzo[1,2-p][1]oxa[4,7,10,14]tetraazacycloheptadecine-17-carboxamide] | 290 | 103
COc1ccc2c(c1)C(=O)N[C@H](C(=O)NCCc1ccc3c(c1)OCO3)CC(=O)N(C)[C@@H](CC(C)C)C(=O)N(C)CC(=O)N[C@H](Cc1ccccc1)CO2 [Example 228, (3R,9S,13S)-N-(2-(benzo[d][1,3]dioxol-5-yl)ethyl)-3-benzyl-9-isobutyl-17-methoxy-7,10-dimethyl-5,8,11,15-tetraoxo-2,3,4,5,6,7,8,9,10,11,12,13,14,15-tetradecahydrobenzo[p][1]oxa[4,7,10,14]tetraazacycloheptadecine-13-carboxamide] | 460 | 190
Cc1ccc2c(c1)C(=O)N[C@H](C(=O)NCCc1ccc3c(c1)OCO3)CC(=O)N(C)[C@@H](CC(C)C)C(=O)N(C)CC(=O)N[C@H](Cc1ccccc1)CO2 [Example 229, (3R,9S,13S)-N-(2-(benzo[d][1,3]dioxol-5-yl)ethyl)-3-benzyl-9-isobutyl-7,10,17-trimethyl-5,8,11,15-tetraoxo-2,3,4,5,6,7,8,9,10,11,12,13,14,15-tetradecahydrobenzo[p][1]oxa[4,7,10,14]tetraazacycloheptadecine-13-carboxamide] | 279 | 117
COc1cccc(CCNC(=O)[C@@H]2CC(=O)N(C)[C@@H](CC(C)C)C(=O)N(C)CC(=O)N[C@H](Cc3ccccc3)COc3ccc(C)cc3C(=O)N2)c1 [Example 230, (3R,9S,13S)-3-benzyl-9-isobutyl-N-(3-methoxyphenethyl)-7,10,17-trimethyl-5,8,11,15-tetraoxo-2,3,4,5,6,7,8,9,10,11,12,13,14,15-tetradecahydrobenzo[p][1]oxa[4,7,10,14]tetraazacycloheptadecine-13-carboxamide] | 482 | 103
COc1cccc(CCNC(=O)[C@@H]2CC(=O)N(C)[C@@H](CC(C)C)C(=O)N(C)CC(=O)N[C@H](Cc3ccccc3)COc3ccc(OC)cc3C(=O)N2)c1 [Example 231, (3R,9S,13S)-3-benzyl-9-isobutyl-17-methoxy-N-(3-methoxyphenethyl)-7,10-dimethyl-5,8,11,15-tetraoxo-2,3,4,5,6,7,8,9,10,11,12,13,14,15-tetradecahydrobenzo[p][1]oxa[4,7,10,14]tetraazacycloheptadecine-13-carboxamide] | 592 | 173
COc1cccc(CCNC(=O)[C@@H]2CC(=O)N(C)[C@@H](CC(C)C)C(=O)N(C)CC(=O)N[C@H](Cc3ccccc3)COc3cc(OC)ccc3C(=O)N2)c1 [Example 232, (3R,9S,13S)-3-benzyl-9-isobutyl-18-methoxy-N-(3-methoxyphenethyl)-7,10-dimethyl-5,8,11,15-tetraoxo-2,3,4,5,6,7,8,9,10,11,12,13,14,15-tetradecahydrobenzo[p][1]oxa[4,7,10,14]tetraazacycloheptadecine-13-carboxamide] | 526 | 105
COc1cccc(CCNC(=O)[C@@H]2CC(=O)N(C)[C@@H](CC(C)C)C(=O)N(C)CC(=O)N[C@H](Cc3ccccc3)COc3cc(C)ccc3C(=O)N2)c1 [Example 233, (3R,9S,13S)-3-benzyl-9-isobutyl-N-(3-methoxyphenethyl)-7,10,18-trimethyl-5,8,11,15-tetraoxo-2,3,4,5,6,7,8,9,10,11,12,13,14,15-tetradecahydrobenzo[p][1]oxa[4,7,10,14]tetraazacycloheptadecine-13-carboxamide] | 610 | 92
CC(C)C[C@H]1C(=O)N(C)CC(=O)N[C@H](Cc2ccccc2)COc2ccc(F)cc2C(=O)N[C@H](C(=O)NCCc2ccc3c(c2)OCO3)CC(=O)N1C [Example 234, (3R,9S,13S)-N-(2-(benzo[d][1,3]dioxol-5-yl)ethyl)-3-benzyl-17-fluoro-9-isobutyl-7,10-dimethyl-5,8,11,15-tetraoxo-2,3,4,5,6,7,8,9,10,11,12,13,14,15-tetradecahydrobenzo[p][1]oxa[4,7,10,14]tetraazacycloheptadecine-13-carboxamide] | 471 | 110
Cc1cccc2c1C(=O)N[C@H](C(=O)NCCc1ccc3c(c1)OCO3)CC(=O)N(C)[C@@H](CC(C)C)C(=O)N(C)CC(=O)N[C@H](Cc1ccccc1)CO2 [Example 235, (3R,9S,13S)-N-(2-(benzo[d][1,3]dioxol-5-yl)ethyl)-3-benzyl-9-isobutyl-7,10,16-trimethyl-5,8,11,15-tetraoxo-2,3,4,5,6,7,8,9,10,11,12,13,14,15-tetradecahydrobenzo[p][1]oxa[4,7,10,14]tetraazacycloheptadecine-13-carboxamide] | 825 | 117
CC(C)C[C@H]1C(=O)N(C)CC(=O)N[C@H](Cc2ccccc2)COc2cc3ccccc3cc2C(=O)N[C@H](C(=O)NCCc2ccc3c(c2)OCO3)CC(=O)N1C [Example 236, (3R,9S,13S)-N-(2-(benzo[d][1,3]dioxol-5-yl)ethyl)-3-benzyl-9-isobutyl-7,10-dimethyl-5,8,11,15-tetraoxo-2,3,4,5,6,7,8,9,10,11,12,13,14,15-tetradecahydronaphtho[2,3-p][1]oxa[4,7,10,14]tetraazacycloheptadecine-13-carboxamide] | 435 | 126
COc1cccc(CCNC(=O)[C@@H]2CC(=O)N(C)[C@@H](CC(C)C)C(=O)N(C)CC(=O)N[C@H](Cc3ccccc3)COc3ccc(Cl)cc3C(=O)N2)c1 [Example 237, (3R,9S,13S)-3-benzyl-17-chloro-9-isobutyl-N-(3-methoxyphenethyl)-7,10-dimethyl-5,8,11,15-tetraoxo-2,3,4,5,6,7,8,9,10,11,12,13,14,15-tetradecahydrobenzo[p][1]oxa[4,7,10,14]tetraazacycloheptadecine-13-carboxamide] | 300 | 128
